Structures can show the parent of a compound that is named as a salt.

The target in the assay is T1, Na⁺/H⁺-Exchangers von Kaninchenerythrocyten (Oryctolagus cuniculus, UniProt P23791).
T1 construct: den Na⁺-Influx in die Erythrocyten via Na⁺/H⁺-Austausch flammenphotometrisch bestimmen zu können; endogenous in cells; host or cells: erythrocytes in blood from the ear arteries of cholesterol-fed White New Zealand rabbits
T1 sequence (P23791 whole entry): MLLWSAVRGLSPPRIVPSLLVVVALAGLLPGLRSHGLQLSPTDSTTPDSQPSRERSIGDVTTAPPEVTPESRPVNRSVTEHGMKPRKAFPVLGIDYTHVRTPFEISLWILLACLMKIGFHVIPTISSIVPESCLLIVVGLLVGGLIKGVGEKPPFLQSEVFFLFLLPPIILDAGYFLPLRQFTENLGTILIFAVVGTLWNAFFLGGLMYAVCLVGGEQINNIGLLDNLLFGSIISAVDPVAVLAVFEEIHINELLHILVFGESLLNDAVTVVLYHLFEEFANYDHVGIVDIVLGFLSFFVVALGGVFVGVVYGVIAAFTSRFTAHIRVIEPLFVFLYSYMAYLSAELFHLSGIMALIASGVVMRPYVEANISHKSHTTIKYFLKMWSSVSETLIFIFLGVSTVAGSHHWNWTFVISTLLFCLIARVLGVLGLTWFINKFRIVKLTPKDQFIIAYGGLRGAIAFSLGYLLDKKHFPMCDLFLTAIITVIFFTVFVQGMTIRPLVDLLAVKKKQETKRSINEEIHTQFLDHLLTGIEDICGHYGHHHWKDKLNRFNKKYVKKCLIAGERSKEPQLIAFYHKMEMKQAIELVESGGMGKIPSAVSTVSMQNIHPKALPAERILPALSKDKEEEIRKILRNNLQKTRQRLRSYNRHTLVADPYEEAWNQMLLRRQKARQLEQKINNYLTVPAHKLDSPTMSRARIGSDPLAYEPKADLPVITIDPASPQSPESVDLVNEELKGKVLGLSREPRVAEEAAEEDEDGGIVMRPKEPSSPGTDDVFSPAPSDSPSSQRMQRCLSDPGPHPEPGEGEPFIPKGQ
The experiment in a line: Inhibition of the Na+/H+ exchanger of rabbit erythrocytes (amiloride-sensitive sodium influx, flame photometry). The class given is cell-based, Kaninchen. As to conditions: Inhibition des Na⁺/H⁺-Exchangers, hyperosmolares Salz-Sucrose-Medium, pH 7,4, 37°C, read-out: IC₅₀. The source says:
Inhibition des Na⁺/H⁺-Exchangers von Kaninchenerythrocyten
Weiße Neuseeland-Kaninchen (Ivanovas) erhielten eine Standard-Diät mit 2% Cholesterin für sechs Wochen, um den Na⁺/H⁺-Austausch zu aktivieren und so den Na⁺-Influx in die Erythrocyten via Na⁺/H⁺-Austausch flammenphotometrisch bestimmen zu können. Das Blut wurde den Ohrarterien entnommen und durch 25 IE Kalium-Heparin ungerinnbar gemacht. Ein Teil jeder Probe wurde zur Doppelbestimmung des Hämatokrits durch Zentrifugieren benutzt. Aliquots von jeweils 100 µl dienten zur Messung des Na⁺-Ausgangsgehalts der Erythrocyten.
Um den Amilorid-sensitiven Natrium-Influx zu bestimmen, wurden 100 µl jeder Blutprobe in jeweils 5 ml eines hyperosmolaren Salz-Sucrose-Mediums (mmol/l: 140 NaCl, 3 KCl, 150 Sucrose, 0,1 Ouabain, 20 Tris-hydroxymethylaminomethan) bei pH 7,4 und 37°C inkubiert. Die Erythrozyten wurden danach dreimal mit eiskalter MgCl₂-Ouabain-Lösung (mmol/l: 112 MgCl₂, 0,1 Ouabain) gewaschen und in 2,0 ml destilliertem Wasser hämolysiert. Der intrazelluläre Natriumgehalt wurde flammenphotometrisch bestimmt.
Der Na⁺-Nettoinflux wurde aus der Differenz zwischen Natrium-Ausgangswerten und dem Natriumgehalt der Erythrocyten nach Inkubation errechnet. Der Amilorid-hemmbare Natrium-Influx ergab sich aus der Differenz des Natriumgehalts der Erythrocyten nach Inkubation mit und ohne Amilorid 3 x 10⁻⁴ mol/l. Auf diese Weise wurde auch bei den erfindungsgemäßen Verbindungen verfahren.
`CN(C)c1ccc(Cl)cc1C(=O)N=C(N)N` [Beispiel 12, 2-Dimethylamino-5-chloro-benzoylguanidin-dihydrochlorid]: the IC50 lay within 1000 to 2000 nM. Under `NC(N)=NC(=O)c1cc(S(N)(=O)=O)c(Cl)cc1N` [Beispiel 1, 2-Amino-4-chloro-5-sulfamoyl-benzoylguanidin-dihydrochlorid] stands 2000 to 3000 nM; under `NC(N)=NC(=O)c1cc(Cl)ccc1N` [Beispiel 9, 2-Amino-5-chloro-benzoylguanidin-dihydrochlorid], 1000 to 2000 nM; under `NC(N)=NC(=O)c1cc(Br)c(Br)cc1N` [Beispiel 11, 2-Amino-4,5-dibromo-benzoylguanidin], 100 nM.

Source of the values: patent publication EP0690048A1, “Ortho-amino substituted benzoylguanidines, process for their preparation, their use as medicine or diagnostic and medicines containing them” (HOECHST AKTIENGESELLSCHAFT, priority 1994, dated 1996).
